Source: ChEMBL document CHEMBL3232809, “Synthesis, antibiotic activity and structure-activity relationship study of some 3-enaminetetramic acids” (2014)
In brackets after ≈: the same amount, converted by molar mass.

Experiments:
Format in all cases: functional
[1] = system: Staphylococcus aureus; test: Antimicrobial activity against methicillin-resistant Staphylococcus aureus
[2] = system: Escherichia coli; test: Antimicrobial activity against Escherichia coli 49
[3] = system: Pseudomonas aeruginosa; test: Antimicrobial activity against Pseudomonas aeruginosa ATCC 27853
[4] = system: Streptococcus pneumoniae; test: Antimicrobial activity against penicillin- and erythromycin-resistant Streptococcus pneumoniae in presence of 2.5% horse blood
[5] = system: Enterococcus faecium; test: Antimicrobial activity against vancomycin-resistant Enterococcus faecium
[6] = system: Escherichia coli; test: Antimicrobial activity against Escherichia coli 50
[7] = system: Haemophilus influenzae; test: Antimicrobial activity against LS2 Efflux knock-out Haemophilus influenzae
[8] = system: Haemophilus influenzae; test: Antimicrobial activity against Haemophilus influenzae ATCC 31517 MMSA
[9] = system: Staphylococcus aureus; test: Antimicrobial activity against Staphylococcus aureus Oxford
[10] = system: Streptococcus pneumoniae; test: Antimicrobial activity against penicillin- and erythromycin-resistant Streptococcus pneumoniae
[11] = system: Escherichia coli; test: Antimicrobial activity against Escherichia coli ATCC 25922
[12] = system: Staphylococcus aureus; test: Antimicrobial activity against methicillin-sensitive Staphylococcus aureus ATCC 13709
[13] = system: Staphylococcus aureus; test: Antimicrobial activity against vancomycin-susceptible Staphylococcus aureus ATCC 25923
[14] = system: Streptococcus pneumoniae; test: Antimicrobial activity against erythromycin-susceptible Streptococcus pneumoniae ATCC 49619
[15] = system: Enterococcus faecalis; test: Antimicrobial activity against vancomycin-susceptible Enterococcus faecalis ATCC 29212

Structure (SMILES)	MIC [1]	MIC [2]	MIC [3]	MIC [4]	MIC [5]	MIC [6]	MIC [7]	MIC [8]	MIC [9]	MIC [10]	MIC [11]	MIC [12]	MIC [13]	MIC [14]	MIC [15]
CCOC(=O)[C@]12CO[C@H](C(C)(C)C)N1C(=O)/C(=C(\C)NCCOc1ccccc1)C2=O	64 µg/mL (≈ 149 µM)	> 32 µg/mL	> 32 µg/mL	2 µg/mL	8 µg/mL (≈ 18.6 µM)	> 32 µg/mL	32 µg/mL (≈ 74.3 µM)	> 64 µg/mL	> 64 µg/mL	1 µg/mL (≈ 2.32 µM)	> 32 µg/mL	64 µg/mL (≈ 149 µM)	64 µg/mL (≈ 149 µM)	2 µg/mL (≈ 4.65 µM)	64 µg/mL (≈ 149 µM)
C/C(NCCOc1ccccc1Cl)=C1/C(=O)CN(C(=O)OC(C)(C)C)C1=O	> 64 µg/mL	> 32 µg/mL	> 32 µg/mL	> 64 µg/mL	> 64 µg/mL	> 32 µg/mL	32 µg/mL (≈ 81 µM)	> 64 µg/mL	> 64 µg/mL	> 64 µg/mL	> 32 µg/mL		> 64 µg/mL	> 64 µg/mL	> 64 µg/mL
CCCCCCCCCCC/C(NCCCOC(C)C)=C1\C(=O)CNC1=O	64 µg/mL (≈ 168 µM)	> 32 µg/mL	> 32 µg/mL	32 µg/mL	8 µg/mL (≈ 21 µM)	> 32 µg/mL	2 µg/mL (≈ 5.26 µM)	> 64 µg/mL	16 µg/mL (≈ 42 µM)	4 µg/mL (≈ 10.5 µM)	> 32 µg/mL	16 µg/mL (≈ 42 µM)	> 64 µg/mL	4 µg/mL (≈ 10.5 µM)	16 µg/mL (≈ 42 µM)
CCCCCCCCC/C(=C1\C(=O)CNC1=O)N1CCCCC1	16 µg/mL (≈ 49.9 µM)	> 32 µg/mL	> 32 µg/mL	16 µg/mL	8 µg/mL (≈ 25 µM)	> 32 µg/mL	> 64 µg/mL	64 µg/mL (≈ 200 µM)	16 µg/mL (≈ 49.9 µM)	16 µg/mL (≈ 49.9 µM)	> 32 µg/mL	16 µg/mL (≈ 49.9 µM)	16 µg/mL (≈ 49.9 µM)	> 64 µg/mL	16 µg/mL (≈ 49.9 µM)
CCCCCCCCCCCCC/C(NCCCN)=C1\C(=O)CN(CCCCCC)C1=O	4 µg/mL (≈ 8.89 µM)	> 32 µg/mL	> 32 µg/mL	32 µg/mL	1 µg/mL (≈ 2.22 µM)	> 32 µg/mL	32 µg/mL (≈ 71.2 µM)	64 µg/mL (≈ 142 µM)	4 µg/mL (≈ 8.89 µM)	8 µg/mL (≈ 17.8 µM)	> 32 µg/mL	2 µg/mL (≈ 4.45 µM)	4 µg/mL (≈ 8.89 µM)	2 µg/mL (≈ 4.45 µM)	2 µg/mL (≈ 4.45 µM)
CCCCCCCCCCCCC/C(NCCCNC(=O)COCC(=O)O)=C1\C(=O)CN(CCCCCC)C1=O	> 64 µg/mL	> 32 µg/mL	> 32 µg/mL	64 µg/mL	16 µg/mL (≈ 28.3 µM)	> 32 µg/mL	> 64 µg/mL	> 64 µg/mL	> 64 µg/mL	16 µg/mL (≈ 28.3 µM)	> 32 µg/mL	> 64 µg/mL	> 64 µg/mL	8 µg/mL (≈ 14.1 µM)	16 µg/mL (≈ 28.3 µM)
CCCCCCCCCCC/C(Nc1ccc(NC(=O)COCC(=O)O)cc1)=C1\C(=O)CN(CCCCCC)C1=O	> 64 µg/mL	> 32 µg/mL	> 32 µg/mL	> 64 µg/mL	> 64 µg/mL	> 32 µg/mL	> 64 µg/mL	> 64 µg/mL	> 64 µg/mL	2 µg/mL (≈ 3.5 µM)	> 32 µg/mL	> 64 µg/mL	> 64 µg/mL	2 µg/mL (≈ 3.5 µM)	> 64 µg/mL
CCCCCCN1CC(=O)/C(=C(/NC2CCCCC2)C2CCCCC2)C1=O	> 64 µg/mL	> 32 µg/mL	> 32 µg/mL	64 µg/mL	> 64 µg/mL	> 32 µg/mL	> 64 µg/mL	> 64 µg/mL	> 64 µg/mL	2 µg/mL (≈ 5.34 µM)	> 32 µg/mL	> 64 µg/mL	> 64 µg/mL	2 µg/mL (≈ 5.34 µM)	> 64 µg/mL
CCCC(=O)N1CC(=O)/C(=C(\CC23CC4CC(C)(CC(C)(C4)C2)C3)NCCCN2CCOCC2)C1=O	> 64 µg/mL	> 32 µg/mL	> 32 µg/mL	32 µg/mL	> 64 µg/mL	> 32 µg/mL	8 µg/mL (≈ 16 µM)	> 64 µg/mL	> 64 µg/mL	16 µg/mL (≈ 32 µM)	> 32 µg/mL	> 64 µg/mL	> 64 µg/mL	16 µg/mL (≈ 32 µM)	> 64 µg/mL
CCCCC/C(NC(C)CCCN(CC)CC)=C1\C(=O)C(CCSC)N(C(=O)CC(C)CC(C)(C)C)C1=O (configuration not stated)	16 µg/mL (≈ 29 µM)	> 32 µg/mL	> 32 µg/mL	8 µg/mL	8 µg/mL (≈ 14.5 µM)	> 32 µg/mL	8 µg/mL (≈ 14.5 µM)	> 64 µg/mL	8 µg/mL (≈ 14.5 µM)	4 µg/mL (≈ 7.25 µM)	> 32 µg/mL	16 µg/mL (≈ 29 µM)	16 µg/mL (≈ 29 µM)	8 µg/mL (≈ 14.5 µM)	16 µg/mL (≈ 29 µM)
CCCCCCCCCCC/C(NCCCOC(C)C)=C1/C(=O)N[C@@H](CCCC(=O)NCCCOC(C)C)C1=O	> 64 µg/mL	> 32 µg/mL	> 32 µg/mL	> 64 µg/mL	> 64 µg/mL	> 32 µg/mL	8 µg/mL (≈ 14.1 µM)	> 64 µg/mL	> 64 µg/mL	16 µg/mL (≈ 28.3 µM)	> 32 µg/mL	> 64 µg/mL	> 64 µg/mL	> 64 µg/mL	> 64 µg/mL
CCCCCCCCCCC/C(NCCCOC(C)C)=C1\C(=O)[C@@H]2CCCC(=O)N2C1=O	> 64 µg/mL	> 32 µg/mL	> 32 µg/mL	> 64 µg/mL	> 64 µg/mL	> 32 µg/mL	4 µg/mL (≈ 8.92 µM)	> 64 µg/mL	> 64 µg/mL	16 µg/mL (≈ 35.7 µM)	> 32 µg/mL	> 64 µg/mL	> 64 µg/mL	> 64 µg/mL	> 64 µg/mL
CCCCCCCCC/C(NC(C)CCCN(CC)CC)=C1/C(=O)N2[C@@H](C(C)(C)C)OC[C@]2(C(=O)OC)C1=O (some centres not stated)	16 µg/mL (≈ 29.1 µM)	> 32 µg/mL	> 32 µg/mL	16 µg/mL	8 µg/mL (≈ 14.6 µM)	> 32 µg/mL	> 64 µg/mL	> 64 µg/mL	16 µg/mL (≈ 29.1 µM)	4 µg/mL (≈ 7.28 µM)	> 32 µg/mL	16 µg/mL (≈ 29.1 µM)	16 µg/mL (≈ 29.1 µM)	4 µg/mL (≈ 7.28 µM)	16 µg/mL (≈ 29.1 µM)
CCOC(=O)[C@]12CO[C@H](C(C)(C)C)N1C(=O)/C(=C(/CC(F)(F)C(F)(F)C(F)(F)C(F)(F)C(F)(F)F)NCCCN1CCOCC1)C2=O	32 µg/mL (≈ 45.4 µM)	> 32 µg/mL	> 32 µg/mL	16 µg/mL	16 µg/mL (≈ 22.7 µM)	> 32 µg/mL	8 µg/mL (≈ 11.3 µM)	> 64 µg/mL	16 µg/mL (≈ 22.7 µM)	8 µg/mL (≈ 11.3 µM)	> 32 µg/mL	32 µg/mL (≈ 45.4 µM)	16 µg/mL (≈ 22.7 µM)	16 µg/mL (≈ 22.7 µM)	32 µg/mL (≈ 45.4 µM)
O=C(O)c1cn(C2CC2)c2cc(N3CCNCC3)c(F)cc2c1=O [CIPROFLOXACIN]				1 µg/mL	32 µg/mL (≈ 96.6 µM)		≤ 0.06 µg/mL	0.5 µg/mL (≈ 1.51 µM)	0.12 µg/mL (≈ 0.362 µM)	1 µg/mL (≈ 3.02 µM)		0.12 µg/mL (≈ 0.362 µM)	0.5 µg/mL (≈ 1.51 µM)	1 µg/mL (≈ 3.02 µM)	1 µg/mL (≈ 3.02 µM)
CC(=O)NC[C@H]1CN(c2ccc(N3CCOCC3)c(F)c2)C(=O)O1 [LINEZOLID]					2 µg/mL (≈ 5.93 µM)		4 µg/mL (≈ 11.9 µM)	16 µg/mL (≈ 47.4 µM)							
